# According to patent US20130288331A1, “PEPTIDOMIMETIC COMPOUNDS AND RELATED METHODS” (priority 2012, published 2013):
# How the values were obtained:
# [1] = biological target: T1, HIV-1 protease (Human immunodeficiency virus type 1 group M subtype B, UniProt P04585); experiment: FRET assay of HIV-1 protease inhibitory activity (IC50); format: biochemical; conditions: for IC50: HIV-1 protease 10.2 nM, 15 min preincubation at 25° C., EDANS/DABCYL substrate for C-protected, HiLyte Fluor 488/QXL 520 substrate for deprotected inhibitors
# Protocol: The HIV-1 protease inhibitory activities of the compounds were determined by a FRET method. HIV-1 protease stock solution was diluted with assay buffer (0.1M sodium acetate, 1.0 M sodium chloride, 1.0 mM EDTA, 1.0 mM DTT, 10% DMSO, and 1.0 mg/mL BSA, pH 4.7). All inhibitors were dissolved in DMSO, and diluted to appropriate concentrations with deionized water such that the maximum conc. of DMSO in the buffer was 8.5%. EDANS/DABCYL-based FRET peptide substrate (Ex/Em=340/490 nm) solution in SensoLyte® 490 HIV Protease Assay Kit (Cat. #71127) and HiLyte Fluor™ 488/QXL™ 520-based FRET peptide substrate (Ex/Em=490/520 nm) solution in SensoLyte® 520 HIV Protease Assay Kit (Cat. #71147) were purchased from Anaspec. We needed to use these two different substrates because the compounds without C-protection (throughout this means protection on the oxygen at the C-terminus, a terminal OH) have weak fluorescence that interferes with that from the EDANS/DABCYL-based FRET peptide substrate (Ex/Em=340/490 nm) so an alternative substrate was used.
# For the determination of IC50 values, HIV-1 protease (40 μL, 10.2 nM final concentration) and inhibitors (10 μL) were incubated for 15 min at 25° C. Substrate solutions (50 μL) in the buffer were added into the incubated solution to initiate the reaction. EDANS/DABCYL-based FRET peptide substrate was used for C-protected inhibitors, and HiLyte Fluor™ 488/QXL™ 520-based FRET peptide substrate was used for deprotected inhibitors. The total assay volume was 100 μL. Fluorescence was monitored for 5 min at 30° C. in a fluorescence microplate reader (BioTek) at Ex/Em=340/490 nm for ^tBu-protected inhibitors, and Ex/Em=490/520 nm for deprotected inhibitors. The initial velocities were plotted against log [inhibitor] and a sigmoidal curve was fitted to the data points using Graphpad Prism 5 software to obtain IC50 values.
# [2] = biological target: T1, HIV-1 protease; experiment: Zhang-Poorman kinetic assay of HIV-1 protease dimerization inhibition; format: biochemical; conditions: for Ki: calculated from y-intercepts using the Zhang-Poorman equation, HIV-1 protease 0.6 to 5.1 nM
# Protocol: If a compound acts as a dimerization inhibitor, the Zhang-Poorman plot gives a line with a slope similar to that obtained for the uninhibited control but with a different intercept; active-site inhibitors yield different slopes compared with the uninhibited control. For this assay, HIV-1 protease was used at concentrations from 0.6 to 5.1 nM. Substrate solutions were diluted to ¼ solution from the original solution, and then used for the kinetic assay. HIV-1 protease (40 μL) was incubated with or without an inhibitor (10 μL) at the desired concentration for 15 min at 25° C. The diluted substrate solution (50 μL) was added to the incubated solution. Fluorescence was monitored for 15 min at 30° C. in a fluorescence microplate reader (BioTek) at Ex/Em=340/490 nm for C-protected inhibitors, and Ex/Em=490/520 nm for deprotected inhibitors.
# Slopes for 1lai-H (8.2±0.6) and 1fla-H (9.3±1.2) compared with uninhibited HIV-1 (9.0±0.6) have different y-intercepts (1lai-H y-intercepts 0.19, 1fla-H y-intercepts 0.73, control y-intercepts 0.013). y-Intercepts of uninhibited HIV-1 have different values between experiments for C-protected and deprotected compounds because the substrates used in the assay are different (see above). The results are consistent with 1-H-1-^tBu (side-chains as indicated above) acting as dimerization inhibitors. We note that it has been reported that inhibition of HIV-1 protease activities by dimerization inhibitors is dependent on the time of pre-incubation with the enzyme and inversely dependent on enzyme concentration; consequently, these factors must be standardized if comparing our data with those from different labs.
# [3] = biological target: GAPDH (Homo sapiens, UniProt P04406); conditions: rescue from apoptosis in vitro; cited from earlier work
# Chain of GAPDH (P04406 whole entry, species assumed): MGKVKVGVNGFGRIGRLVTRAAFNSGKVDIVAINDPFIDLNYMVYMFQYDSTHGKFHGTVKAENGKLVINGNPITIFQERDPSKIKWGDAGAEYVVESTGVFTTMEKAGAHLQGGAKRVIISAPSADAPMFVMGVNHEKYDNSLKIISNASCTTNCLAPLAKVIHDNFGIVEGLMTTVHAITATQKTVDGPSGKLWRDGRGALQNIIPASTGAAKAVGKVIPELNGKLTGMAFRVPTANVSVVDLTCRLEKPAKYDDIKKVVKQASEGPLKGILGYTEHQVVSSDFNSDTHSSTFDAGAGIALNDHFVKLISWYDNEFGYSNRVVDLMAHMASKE
# [4] = FIG. 2A, C-protected compounds, Ex/Em=340/490 nm substrate, control 0.42
# [5] = FIG. 2A, C-protected compounds, Ex/Em=340/490 nm substrate, uninhibited HIV-1 9.7±0.7
# [6] = FIG. 2B, deprotected compounds, Ex/Em=490/520 nm substrate, control 0.013
# [7] = FIG. 2B, deprotected compounds, Ex/Em=490/520 nm substrate, uninhibited HIV-1 9.0±0.6
SMILES,IC50 [1],Ki [2],other results
"CC(C)C[C@H]1C(N2CC[C@H](N3C(=O)C=C(OC(C)(C)C)[C@@H]3C)C2)=CC(=O)N1[C@H]1CCN(C2=CC(=O)N[C@H]2Cc2ccccc2)C1 [1fla-^tBu, (S)-1-((S)-1-((S)-2-benzyl-5-oxo-2,5-dihydro-1H-pyrrol-3-yl)pyrrolidin-3-yl)-4-((S)-3-((S)-3-(tert-butoxy)-2-methyl-5-oxo-2,5-dihydro-1H-pyrrol-1-yl)pyrrolidin-1-yl)-5-isobutyl-1H-pyrrol-2(5H)-one]",54.9 ± 6 µM,21 ± 2.1 µM,"y-intercept of Zhang-Poorman plot [2, 4]: 1.4; slope of Zhang-Poorman plot [2, 5]: 9.5±0.6"
"CC[C@H](C)[C@H]1C(OC(C)(C)C)=CC(=O)N1[C@H]1CCN(C2=CC(=O)N([C@H]3CCN(C4=CC(=O)N[C@H]4CC(C)C)C3)[C@H]2C)C1 [1lai-^tBu, (S)-4-(tert-butoxy)-5-((S)-sec-butyl)-1-((S)-1-((S)-1-((S)-1-((S)-2-isobutyl-5-oxo-2,5-dihydro-1H-pyrrol-3-yl)pyrrolidin-3-yl)-2-methyl-5-oxo-2,5-dihydro-1H-pyrrol-3-yl)pyrrolidin-3-yl)-1H-pyrrol-2(5H)-one]",111 ± 18 µM,19.4 ± 4.1 µM,"y-intercept of Zhang-Poorman plot [2, 4]: 2.6; slope of Zhang-Poorman plot [2, 5]: 10.4±1.0"
"CC(C)C[C@H]1C(OC(C)(C)C)=CC(=O)N1[C@H]1CCN(C2=CC(=O)NC2Cc2ccccc2)C1 (stereo partly drawn) [2fl-^tBu, (5S)-1-((3S)-1-(2-benzyl-5-oxo-2,5-dihydro-1H-pyrrol-3-yl)pyrrolidin-3-yl)-4-(tert-butoxy)-5-isobutyl-1H-pyrrol-2(5H)-one]",516 µM,–,–
"CC(C)C[C@@H]1NC(=O)C=C1N1CC[C@H](N2C(=O)C=C(OC(C)(C)C)[C@@H]2C)C1 [2la-^tBu, (5S)-4-(tert-butoxy)-1-((3S)-1-(2-isobutyl-5-oxo-2,5-dihydro-1H-pyrrol-3-yl)pyrrolidin-3-yl)-5-methyl-1H-pyrrol-2(5H)-one]",176 ± 16 µM,–,–
C#CCN(C)CC1=Cc2ccccc2Oc2ccccc21 [CGP3466],–,–,rescuing effect relative to deprenyl [3]: 100 ×
CC(C)C[C@H]1C(N2CC[C@H](N3C(=O)CC(=O)[C@@H]3C)C2)=CC(=O)N1[C@H]1CCN(C2=CC(=O)N[C@H]2Cc2ccccc2)C1 [Compound 1fla-H],46.5 ± 8 µM,0.93 ± 0.3 µM,"y-intercept of Zhang-Poorman plot [2, 6]: 0.73; slope of Zhang-Poorman plot [2, 7]: 9.3±1.2"
"CC[C@H](C)[C@H]1C(=O)CC(=O)N1[C@H]1CCN(C2=CC(=O)N([C@H]3CCN(C4=CC(=O)N[C@H]4CC(C)C)C3)[C@H]2C)C1 [Compound 1lai-H, (3′S,5S)-5-((S)-sec-butyl)-1′-((S)-1-((S)-1-((S)-2-Isobutyl-5-oxo-2,5-dihydro-1H-pyrrol-3-yl)pyrrolidin-3-yl)-2-methyl-5-oxo-2,5-dihydro-1H-pyrrol-3-yl)-[1,3′-bipyrrolidine]-2,4-dione]",3.7 ± 0.3 µM,0.38 ± 0.07 µM,"y-intercept of Zhang-Poorman plot [2, 6]: 0.19; slope of Zhang-Poorman plot [2, 7]: 8.2±0.6"
"CC(C)C[C@H]1C(=O)CC(=O)N1[C@H]1CCN(C2=CC(=O)N[C@H]2Cc2ccccc2)C1 [Compound 2fl-H, (3′S,5S)-1′-(2-benzyl-5-oxo-2,5-dihydro-1H-pyrrol-3-yl)-5-isobutyl-[1,3′-bipyrrolidine]-2,4-dione]",419 µM,–,–
CC(C)C[C@@H]1NC(=O)C=C1N1CC[C@H](N2C(=O)CC(=O)[C@@H]2C)C1 [Compound 2la-H],–,–,"inhibition of HIV-1 protease ([1]; FRET assay, result in words): did not show any inhibition"
CC[C@H](C)C1C(=O)CC(=O)N1[C@H]1CCN(C2=CC(=O)N[C@H]2CC(C)C)C1 (stereo partly drawn) [Compound 2li-H],623 µM,–,–
CC(C)C[C@@H]1NC(=O)C=C1N1CC[C@H](N2C(=O)C=C(NCCOCCOCCNC3=CC(=O)N([C@H]4CCN(C5=CC(=O)N[C@H]5CC(C)C)C4)[C@H]3C)[C@@H]2C)C1 [Compound 13],84.4 ± 10 µM,–,inhibition of HIV-1 protease relative to 2la-^tBu ([1]; comparison of IC50 values): two times better inhibition
